The results in this text go back to patent publication US20090270278A1, “Methods and compounds for making arrays” (AMBERGEN, Inc., priority 2007, published 2009).

For the test, the target named is T1, protein kinase Cα (PKCα) (Homo sapiens, UniProt P17252).
T1 construct: isolate and photo-release endogenous PKCa from the undiluted detergent fractionated HeLa cell extracts; endogenous in cells; host or cells: HeLa cells (ATCC)
Put plainly: PMA-mediated PKCα sub-cellular translocation, measured by kinase activity after isolation with photocleavable antibodies. The format is cell-based. The following applies: cultured HeLa cells stimulated with 200 nM PMA for 5 min, detergent-fractionated, based on kinase activity, n=4. The method, then: FIG. 20. Phorbol ester (PMA) mediated protein kinase Cα (PKCα) sub-cellular translocation as measured by functional activity following isolation with photocleavable antibodies. Cultured HeLa cells were stimulated with 200 nM PMA for 5 min and detergent fractionated into the cytosol and membrane compartments prior to isolation and purification with the photocleavable antibodies.
Cultured HeLa cells (ATCC; Manassas, Va.) were stimulated for 5 min with 200 nM Phorbol-12-Myristate-13-Acetate (PMA; EMD Biosciences, Inc., San Diego, Calif.) and subsequently detergent fractionated into sub-cellular compartments according to reported procedures [Ramsby et al. (1994) Electrophoresis 15, 265-277; Ramsby & Makowski. (1999) Methods Mol Biol 112, 53-66; Chiang et al. (2000) J Biochem Biophys Methods 46, 53-68]. PMA is a potent activator of PKCα and is well known to cause translocation of the kinase from the cytosolic to the membrane sub-cellular compartments [Ross & Joyner. (1997) Endothelium 5, 321-332; Bazan & Rapoport. (1996) JPharmacol Toxicol Methods 36, 87-95; Yazlovitskaya & Melnykovych. (1995) Cancer Lett 88, 179-183]. […]

Regarding `CCCCCCCCCCCCCC(=O)O[C@@H]1[C@@H](C)[C@@]2(O)[C@@H](C=C(CO)C[C@]3(O)C(=O)C(C)=C[C@@H]23)[C@@H]2C(C)(C)[C@]12OC(C)=O` [PMA, Phorbol-12-Myristate-13-Acetate], under “baseline 21±2% membrane”, the “relative sub-cellular distribution of PKCα, membrane” value was determined as 84±3%. Also, the “relative sub-cellular distribution of PKCα, cytosol” value (baseline 79±7% cytosol) is 16±4%.
